{
  "source": "paper PMC7059070",
  "about": "“Synthesis and in-vitro Evaluation of S-allyl Cysteine Ester - Caffeic Acid Amide Hybrids as Potential Anticancer Agents” (Iranian Journal of Pharmaceutical Research : IJPR, 2019)",
  "key": {"[1]": {"system": "SW480 human colon adenocarcinoma cells", "assay": "Cell viability, sulforhodamine B (SRB) assay, SW480 cells", "type": "cell-based", "conditions": "for IC50: Homo sapiens, SW480 cells, SRB", "protocol": "(§1) Biological assays were performed using an adenocarcinoma colon cancer cell line (SW480) and non-malignant cells (CHO-K1). These were obtained from the European Collection of Authenticated Cell Cultures (ECACC, England) and maintained in Dulbecco’s Modified Eagle Medium, supplemented with 10% heat-inactivated (56 °C) horse serum, 1% penicillin/streptomycin and 1% non-essential amino acids (Gibco Invitrogen, Carlsbad, USA). For all experiments, horse serum was reduced to 3%, and the medium was supplemented with […] transferrin, 5 ng/mL selenium and […] insulin (ITS-defined medium; Gibco, Invitrogen, Carlsbad, USA) ([32]).\n(§2) The cell viability of the synthesized hybrids, lead, and reference compounds was evaluated through Sulforhodamine B (SRB) assay, a colorimetric test that is based on staining of total cellular protein of adherent cells. The cells were seeded to a ﬁnal density of 20.000 cells/well in 96-well tissue culture plates and incubated at 37 °C in a humidified atmosphere at 5% CO2. […] After treatment, the cells were fixed with trichloroacetic acid (50% v/v) (MERCK) for a period of one h at 4 °C. The cell proteins were determined by staining with 0.4% (w/v) SRB (Sigma-Aldrich, United States), then they were washed with 1% acetic acid for the removal of unbound SRB and left for air-drying. Protein bound SRB was solubilized in 10 mM Tris-base and the absorbance was measured at 492 nm in a microplate reader (Mindray MR-96A) ([33]). All of the experiments were performed at least in quintuplicate."}, "[2]": {"system": "non-malignant CHO-K1 cell line", "assay": "Cell viability, sulforhodamine B (SRB) assay, CHO-K1 cells", "type": "cell-based", "conditions": "Cricetulus griseus", "protocol": "as §1, §2"}, "[3]": {"system": "SW480 cells", "assay": "Antiproliferative activity, SRB assay over 0-8 days", "type": "cell-based, human", "conditions": "0.1-0.55 mM, p ≤ 0.05 vs control", "protocol": "Briefly, the cells were seeded to a ﬁnal density of 2500 cells/well in 96-well tissue culture plates and incubated in the same conditions described for viability. […] Culture media was replaced every 48 h. After each incubation time, the cells were fixed, stained, and read as previously described for this technique ([32])."}, "[4]": {"system": "SW480 cells", "assay": "Mitochondrial membrane potential (ΔΨm), DiOC6/PI flow cytometry", "type": "cell-based, human", "conditions": "SW480, treated at IC50, 48 h", "protocol": "Mitochondrial membrane permeability changes were assessed through the fluorescent dye DiOC6 (3,3’-dihexyloxacarbocyanine iodide, Thermo Fisher Scientiﬁc, Waltham, MA, USA), and propidium iodide (PI). The cells were seeded to a ﬁnal density of 2.5 x 10^5 cells/well in 6-well tissue culture plates and were allowed to grow for 24 h. […] The cells were collected to analyze 10,000 events by ﬂow cytometry with excitation at 488 nm and detection of the emission with the green (530/15 nm) and the red (610/20 nm) ﬁlters. This method allowed us quantifying cells with depolarized mitochondrial membrane ([34])."}, "[5]": {"system": "SW480 cells", "assay": "Cell cycle analysis, propidium iodide flow cytometry", "type": "cell-based, human", "conditions": "SW480, treated at IC50, 48 h", "protocol": "Cell cycle distribution was analyzed by labelling cells with propidium iodide (PI). Assays were carried out as described by Nicoletti et al. (1991). In brief, cells were seeded in 6-well tissue culture plates at a density of 2.5 x 10^5 cells/well, incubated at 37 °C in a 5% CO2 atmosphere. […] After the treatment, the cells were collected by scraping and the centrifuged cell pellet was resuspended with phosphate buffered saline (PBS). The cell suspension was fixed in 1.8 mL 70% ethanol at 4°C overnight, afterward, these were centrifuged, washed twice in PBS and resuspended in 300 µL of PBS containing 0.25 mg/mL RNAse (Type I-A, Sigma-Aldrich, Germany) and 0.1 mg/mL PI. Following the incubation in the dark at room temperature for 30 min, the PI ﬂuorescence of 10,000 cells was analyzed using a FACS Canto II ﬂow cytometer and the software BD FACS Diva 6.1.3. (BD Biosciences, San Jose). PI signal was analyzed with excitation at 488 nm, using a Sapphire laser, and fluorescence was detected at 610nm. The cell clumps were excluded with the PI-Area vs PI-Width signals. The cell cycle model was ﬁxed using the software FlowJo 7.6.2 (Ashland, OR, USA), applying the Dean-Jett-Fox model ([34], [35])."}, "[6]": {"system": "human gastric carcinoma cell line BGC-823", "design": "method as in PMID 19272773", "conditions": "cited from earlier work"}, "[7]": {"system": "human nasopharyngeal carcinoma cell line KB", "design": "method as in PMID 19272773", "conditions": "cited from earlier work"}, "[8]": {"system": "human hepatoma cell line BEL-7402", "design": "method as in PMID 19272773", "conditions": "cited from earlier work"}},
  "note": "Like-named read-outs stand apart in the source and are kept apart here.",
  "data": [
    {"smiles": "C=CCSC[C@H](NC(=O)/C=C/c1ccc(OC(C)=O)c(OC(C)=O)c1)C(=O)OCCCCC", "note": "[6e, Pentyl N-{(2E)-3-[3,4-bis(acetyloxy)phenyl]prop-2-enoyl}-S-prop-2-en-1-ylcysteinate]", "values": [
      {"measurement": "IC50", "setting": "[1]; 24 h treatment, read-out: IC50 (mM) SW480 cells, 24 h", "value": 0.68, "unit": "mM"},
      {"measurement": "IC50", "setting": "[1]; 48 h treatment, read-out: IC50 (mM) SW480 cells, 48 h", "value": 0.18, "unit": "mM"},
      {"measurement": "SI (selectivity index), 24 h", "setting": "[1]; ratio of IC50 against CHO-K1 to IC50 against SW480, 24 h", "value": 0.40},
      {"measurement": "SI (selectivity index), 48 h", "setting": "[1]; ratio of IC50 against CHO-K1 to IC50 against SW480, 48 h", "value": 10.3},
      {"measurement": "IC50", "setting": "[2]; 24 h treatment, read-out: IC50 (mM) CHO-K1 cells, 24 h", "value": 0.26, "unit": "mM"},
      {"measurement": "IC50", "setting": "[2]; 48 h treatment, read-out: IC50 (mM) CHO-K1 cells, 48 h", "value": 1.84, "unit": "mM"},
      {"measurement": "Day from which significant antiproliferative activity was displayed", "setting": "[3]", "value": 2, "unit": "days"},
      {"measurement": "PI+ cells", "setting": "[4]; cells in process of death", "value": "9,38%"},
      {"measurement": "DiOC6 low cells", "setting": "[4]; cells that lose membrane polarization", "value": "39,9%"},
      {"measurement": "DiOC6 high cells", "setting": "[4]; live cells with high membrane polarization", "value": "51,0%"},
      {"measurement": "Cells in G2/M phase", "setting": "[5]", "value": 22.7, "unit": "%"},
      {"measurement": "Effect on cell cycle in words", "setting": "[5]", "value": "cell cycle arrest in G2/M phase"},
      {"measurement": "melting point", "value": "101 to 103", "unit": "°C"}
    ]},
    {"smiles": "Cc1cccc(NC(=O)/C(C#N)=C/c2cc(O)c(O)c([N+](=O)[O-])c2)c1", "note": "[cyanoamide derivative 5]", "values": [
      {"measurement": "IC50 against BGC-823", "setting": "[6]", "value": 5.6, "unit": "µg/mL"},
      {"measurement": "IC50 against KB", "setting": "[7]", "value": 13.1, "unit": "µg/mL"},
      {"measurement": "IC50 against BEL-7402", "setting": "[8]", "value": 12.5, "unit": "µg/mL"}
    ]}
  ]
}
